Laboratory results published in patent publication US8309558B2, “Compounds for the treatment of hepatitis C” (Bristol-Myers Squibb Company, priority 2008, dated 2012).
Like-named read-outs stand apart in the source and are kept apart here.

System: HCV replicon cells
Assay: HCV replicon FRET / luciferase assay (96-well plates)
Format: cell-based
Details: HCV replicon, read-out: EC50
From the text: FRET Assay Preparation. To perform the HCV FRET screening assay, 96-well cell culture plates were used. The FRET peptide (Anaspec, Inc.) (Taliani et al., Anal. Biochem. 1996, 240, 60-67) contains a fluorescence donor, EDANS, near one end of the peptide and an acceptor, DABCYL, near the other end. The fluorescence of the peptide is quenched by […] resonance energy transfer (RET) between the donor and the acceptor, but as the NS3 protease cleaves the peptide the products are released from RET quenching and the fluorescence of the donor becomes apparent. The assay reagent was made as follows: 5× cell Luciferase cell culture lysis reagent from Promega (#E153A) diluted to 1× with dH2O, NaCl added to 150 mM final, the FRET peptide diluted to 20 μM final from a 2 mM stock.
To prepare plates, HCV replicon cells, with or without a Renilla luciferase reporter gene, were trypsinized and placed into each well of a 96-well plate with titrated test compounds added in columns 3 through 12; columns 1 and 2 contained a control compound (HCV protease inhibitor), and the bottom row contained cells without compound. The plates were then placed in a CO2 incubator at 37° C.
Assays. Subsequent to addition of the test compounds described above (FRET Assay Preparation), at various times the plate was removed and Alamar blue solution (Trek Diagnostics, #00-100) was added per well as a measure of cellular toxicity. After reading in a Cytoflour 4000 instrument (PE Biosystems), plates were rinsed with PBS and then used for FRET assay by the addition of 30 ul of the FRET peptide assay reagent described above (FRET Assay Preparation) per well. The plate was then placed into the Cytoflour 4000 instrument which had been set to 340 excite/490 emission, automatic mode for 20 cycles and the plate read in a kinetic mode. Typically, the signal to noise using an endpoint analysis after the reads was at least three-fold. Alternatively, after Alamar blue reading, plates were rinsed with PBS, 50 ul of DMEM (high glucose) without phenol red was added and plates were then used for luciferase assay using the Promega Dual-Glo Luciferase Assay System.
Compound analysis was determined by quantification of the relative HCV replicon inhibition and the relative cytotoxicity values. To calculate cytoxicity values, the average Alamar Blue fluorescence signals from the control wells were set as 100% non-toxic. The individual signals in each of the compound test wells were then divided by the average control signal and multiplied by 100% to determine […]. To calculate the HCV replicon inhibition values, an average background value was obtained from the two wells containing the highest amount of HCV protease inhibitor at the end of the assay period. These numbers were similar to those obtained from naïve Huh-7 cells.
The background numbers were then subtracted from the average signal obtained from the control wells and this number was used as 100% activity. The individual signals in each of the compound test wells were then divided by the averaged control values after background subtraction and multiplied by 100% to determine percent activity. EC50 values for a protease inhibitor titration were calculated as the concentration which caused a 50% reduction in FRET or luciferase activity. The two numbers generated for the compound plate, percent cytoxicity and percent activity were used to determine compounds of interest for further analysis.

[1] = Hepatitis C virus, 24 h, Table 1d (class symbols)
[2] = Hepatitis C virus, 24 h, second table titled Table 1d (numbers)

Structure (SMILES)	EC50 (Hepatitis C virus, Table 1b) [nM]	other results
CNC(=O)c1c(-c2ccc(F)cc2)oc2ccc(OCC(=O)NCc3ccco3)cc12		EC50 (Hepatitis C virus, Table 1a): 1000 to 10000 nM
CNC(=O)c1c(-c2ccc(F)cc2)oc2ccc(OCC(=O)NCc3nc4ccccc4s3)cc12		EC50 (Hepatitis C virus, Table 1a): 1000 to 10000 nM
CCOc1ccc(C(=O)NCC(C)C)cc1-c1ccc2oc(-c3ccc(F)cc3)c(C(=O)NC)c2c1	< 250	
CNC(=O)c1c(-c2ccc(F)cc2)oc2ccc(-c3ccc(-c4cccnc4)c(C(=O)NCC(C)C)c3)cc12	< 250	
CCOc1cccc(-c2ccc(-c3ccc4oc(-c5ccc(F)cc5)c(C(=O)NC)c4c3)cc2C(=O)NCC(C)C)c1	< 250	
CNC(=O)c1c(-c2ccc(F)cc2)oc2ccc(-c3ccc(CCC(C)C)c(C(=O)NCC(C)C)c3)cc12	> 10000	
CNC(=O)c1c(-c2ccc(F)cc2)oc2ccc(-c3ccc(-c4cccc(C(=O)O)c4)c(C(=O)NCC(C)C)c3)cc12	1000 to 10000	
CCCn1cc(-c2ccc(-c3ccc4oc(-c5ccc(F)cc5)c(C(=O)NC)c4c3)cc2C(=O)NCC(C)C)cn1	< 250	
CNC(=O)c1c(-c2ccc(F)cc2)oc2ccc(-c3ccc(-c4ccccc4CO)c(C(=O)NCC(C)C)c3)cc12	< 250	
CNC(=O)c1c(-c2ccc(F)cc2)oc2ccc(-c3ccc(-c4ccoc4)c(C(=O)NCC(C)C)c3)cc12	< 250	
CNC(=O)c1c(-c2ccc(F)cc2)oc2ccc(-c3cc(C(=O)NCC(C)C)ccc3OCCN(Cc3ccccc3)Cc3ccccc3)cc12	1000 to 10000	
CNC(=O)c1c(-c2ccc(F)cc2)oc2cc(N(CCO)S(C)(=O)=O)c(-c3cccc(C(=O)NC(C)(C)c4ccncc4)c3)cc12	< 250	
CNC(=O)c1c(-c2ccc(F)cc2)oc2cc(N(CCO)S(C)(=O)=O)c(-c3cccc(C(=O)NC(C)(C)c4ccnc(C)c4)c3)cc12	< 250	
CNC(=O)c1c(-c2ccc(F)cc2)oc2ccc(-c3cccc(C(=O)NC(C)(C)c4ccccn4)c3)cc12	< 250	
CNC(=O)c1c(-c2ccc(F)cc2)oc2ccc(-c3cccc(C(=O)NC(C)(C)c4cccc(C)n4)c3)cc12	250 to 1000	
CNC(=O)c1c(-c2ccc(F)cc2)oc2cc(NS(C)(=O)=O)c(/C=C/C(=O)OC(C)(C)C)cc12	1000 to 10000	
CNC(=O)c1c(-c2ccc(F)cc2)oc2ccc(-c3cc(C(=O)NCC(C)C)ccc3OCCCN3C(=O)c4ccccc4C3=O)cc12	> 10000	
CNC(=O)c1c(-c2ccc(F)cc2)oc2ccc(-c3cc(C(=O)NC4(c5ccccn5)CC4)ccc3C3CC3)cc12	> 10000	
CNC(=O)c1c(-c2ccc(F)cc2)oc2ccc(-c3cc(C(=O)O)ccc3OC(F)(F)F)cc12	> 10000	
CNC(=O)c1c(-c2ccc(F)cc2)oc2ccc(-c3cc(C(=O)NC4(c5noc(-c6ccccc6)n5)CC4)ccc3C)cc12	< 250	
CNC(=O)c1c(-c2ccc(F)cc2)oc2ccc(-c3cc(C(=O)NC4(c5noc(C)n5)CC4)c(OC)cc3Cl)cc12	< 250	
CNC(=O)c1c(-c2ccc(F)cc2)oc2ccc(-c3cc(C(=O)NC4(c5noc(C)n5)CC4)c(OC)cc3C)cc12	< 250	
CNC(=O)c1c(-c2ccc(F)cc2)oc2ccc(-c3cc(C(=O)NC4(c5nnc(-c6ccccc6OC)[nH]5)CC4)ccc3C)cc12	< 250	

Structure (SMILES)	EC50 (Hepatitis C virus, Table 1b) [nM]	other results
CCCc1nnc(C2(NC(=O)c3ccc(C)c(-c4ccc5oc(-c6ccc(F)cc6)c(C(=O)NC)c5c4)c3)CC2)[nH]1	< 250	
CNC(=O)c1c(-c2ccc(F)cc2)oc2ccc(-c3ccc(-c4ccccc4Cl)c(C(=O)NC4(c5ccccn5)CC4)c3)cc12	< 250	
CNC(=O)c1c(-c2ccc(F)cc2)oc2ccc(-c3cc(C(=O)NC4(c5cncnc5)CC4)ccc3C)cc12	< 250	
CNC(=O)c1c(-c2ccc(F)cc2)oc2ccc(-c3cc(C(=O)OC)c(OC)cc3OCC(N)=O)cc12	1000 to 10000	
CCNC(=O)c1cc(-c2ccc3oc(-c4ccc(F)cc4)c(C(=O)NC)c3c2F)c(C)cc1OC	< 250	
CNC(=O)c1c(-c2ccc(F)cc2)oc2ccc(-c3cc(C(=O)NC4(c5cc(C)on5)CC4)ccc3C)cc12	< 250	
CNC(=O)c1c(-c2ccc(F)cc2)oc2ccc(-c3cc(C(=O)NC4(c5cn(C)cn5)CC4)c(OC)cc3C)cc12	< 250	
CNC(=O)c1c(-c2ccc(F)cc2)oc2ccc(-c3cc(C(=O)NC4(c5ncc(C)s5)CC4)c(OC)cc3C)cc12	< 250	
CNC(=O)c1c(-c2ccc(F)cc2)oc2ccc(-c3cc(C(=O)NC4(C(=O)Nc5nc(C)no5)CC4)c(OC)cc3C)cc12		EC50 [1]: 1 to 250 nM
CNC(=O)c1c(-c2ccc(F)cc2)oc2ccc(-c3cc(C(=O)NC4(c5ccccn5)CC4)c(OCC4CCCCO4)cc3C)cc12 (stereo not shown)		EC50 [1]: 1 to 250 nM
CNC(=O)c1c(-c2ccc(F)cc2)oc2ccc(-c3cc(C(=O)NC(C)(C)C)ccc3OC)c(F)c12		EC50 [1]: 1 to 250 nM
CNC(=O)c1c(-c2ccc(F)cc2)oc2ccc(-c3cc(C(=O)NC4(c5nc(C)no5)CC4)ccc3C)cc12 [drawing 478]	< 250	
CNC(=O)c1c(-c2ccc(F)cc2)oc2ccc(-c3cc(C(=O)NCC(C)C)ccc3OCCC3CNCCO3)cc12 (stereo not shown) [drawing 567]		EC50 (Table 1b): < 250 nM
CNC(=O)c1c(-c2ccc(F)cc2)oc2ccc(-c3cc(C(=O)NC4(c5ncoc5C)CC4)c(OC)cc3C)cc12 [drawing 637]		EC50 [1]: 1 to 250 nM
CNC(=O)c1c(-c2ccc(F)cc2)oc2ccc(-c3cc(C(=O)NC4(c5ccccn5)CC4)c(OCC(=O)OC)cc3C)cc12 [drawing 642]		EC50 [1]: 250 to 1000 nM
CNC(=O)c1c(-c2ccc(F)cc2)oc2ccc(-c3cc(C(=O)NC4(c5ccncn5)CC4)ccc3C)cc12 [drawing 684]		EC50 [1]: 1 to 250 nM
CNC(=O)c1c(-c2ccc(F)cc2)oc2ccc(-c3cc(C(=O)NC4(c5ncc(F)cn5)CC4)c(OC)cc3C)c(F)c12 [drawing 689]		EC50 [1]: 1 to 250 nM
CNC(=O)c1c(-c2ccc(F)cc2)oc2ccc(-c3cc(C(=O)NC4(c5ccnnc5)CC4)c(OC)cc3C)c(F)c12 [drawing 701]		EC50 [1]: 1 to 250 nM
CNC(=O)c1c(-c2ccc(F)cc2)oc2ccc(-c3cc(C(=O)NC4(c5ncoc5C)CC4)c(OC)cc3C)cc12 [drawing 709]		EC50 [2]: 2 nM
CNC(=O)c1c(-c2ccc(F)cc2)oc2ccc(-c3cc(C(=O)NC4(c5ccccn5)CC4)c(OCC(=O)OC)cc3C)cc12 [drawing 710]		EC50 [2]: 210 nM
CNC(=O)c1c(-c2ccc(F)cc2)oc2ccc(-c3cc(C(=O)NC4(c5ccncn5)CC4)ccc3C)cc12 [drawing 713]		EC50 [2]: 2 nM
CNC(=O)c1c(-c2ccc(F)cc2)oc2ccc(-c3cc(C(=O)NC4(c5ncc(F)cn5)CC4)c(OC)cc3C)c(F)c12 [drawing 714]		EC50 [2]: 10 nM
CNC(=O)c1c(-c2ccc(F)cc2)oc2ccc(-c3cc(C(=O)NC4(c5ccnnc5)CC4)c(OC)cc3C)c(F)c12 [drawing 715]		EC50 [2]: 56 nM
